# Measured values: patent US8383618B2, “C2-fluoro substituted piperazine linked pyrrolo[2,1-C][1,4] benzodiazepine dimers and a process for the preparation thereof” (Council of Scientific & Industrial Research, priority 2008, dated 2013)
# Read-outs that look alike come from different tables or passages of the source.
# Legend:
# calf thymus (CT) DNA [1] = test: Thermal denaturation studies; format: binding; details: [PBD]:[DNA] molar ratio 1:5; CT-DNA 100 μM, ligand 20 μM; sodium phosphate buffer pH 7.00
# Method: The DNA binding affinity of the C2-Fluoro substituted piperazine linked pyrrolo[2,1c][1,4]benzodiazepine dimers were subjected to thermal denaturation studies using calf thymus (CT) DNA (Jones, G. B.; Davey, C. L.; Jenkins, T. C.; Kamal, A.; Kneale, G. G.; Neidle, S.; Webster, G. D.; Thurston, D. E. Anti-cancer Drug Des. 1990, 5, 249. McConnaughie, A. W.; Jenkins, T. C. J. Med. Chem. 1995, 38, 3488). The studies for these compounds (IXa-f) were carried out by DNA/ligand molar ratio is 1:5 the increase in the helix melting temperature (ΔTm) for each compound was examined at 0 h. […] Data for DSB-120 and SJG-136 are included in Table-3 for comparison. The synthetic DC-81 dimer (DSB-120) gives a ΔTm 10.2° C. and SJC-136 gives a […]Tm of 25° C. under identical experimental condition.
# DU-145 = test: NCI in vitro anticancer screen (SRB); format: cell-based, human; details: Prostate, 48 h exposure
# Method: (§1) The above compounds were evaluated for in vitro anticancer activity against sixty human tumor cells derived from nine cancer types (leukemia, non small cell cancer, colon cancer CNS cancer, melanoma, ovarian cancer renal cancer, prostate cancer and breast cancer) as per NCI protocol. For each compound, dose response curves for each cell line were measured at a minimum of five concentrations at 10-fold dilution. A protocol of 48 h continuous drug exposure was used, and a sulforhodamine B (SRB) protein assay was used to estimate cell viability or growth. The concentration causing 50% cell growth inhibition (GI50), total cell growth inhibition (TGI, 0% growth) and 50% cell death (LC-50% growth) compared with the control was calculated.
# CCRF-CEM = test: NCI in vitro anticancer screen (SRB); format: cell-based, human; details: Leukemia, 48 h exposure
# Method: as §1
# RXF 393 = test: NCI in vitro anticancer screen (SRB); format: cell-based, human; details: Renal, 48 h exposure
# Method: as §1
# HCT-116 = test: NCI in vitro anticancer screen (SRB); format: cell-based, human; details: Colon, 48 h exposure
# Method: as §1
# TK-10 = test: NCI in vitro anticancer screen (SRB); format: cell-based, human; details: Renal, 48 h exposure
# Method: as §1
# K-562 = test: NCI in vitro anticancer screen (SRB); format: cell-based, human; details: Leukemia, 48 h exposure
# Method: as §1
# M14 = test: NCI in vitro anticancer screen (SRB); format: cell-based, human; details: Melanoma, 48 h exposure
# Method: as §1
# SW-620 = test: NCI in vitro anticancer screen (SRB); format: cell-based, human; details: Colon, 48 h exposure
# Method: as §1
# LOX IMVI = test: NCI in vitro anticancer screen (SRB); format: cell-based, human; details: Melanoma, 48 h exposure
# Method: as §1
# IGROV1 = test: NCI in vitro anticancer screen (SRB); format: cell-based, human; details: Ovarian, 48 h exposure
# Method: as §1
# A549/ATCC = test: NCI in vitro anticancer screen (SRB); format: cell-based, human; details: Non-small cell lung, 48 h exposure
# Method: as §1
# SK-MEL-5 = test: NCI in vitro anticancer screen (SRB); format: cell-based, human; details: Melanoma, 48 h exposure
# Method: as §1
# HCC-2998 = test: NCI in vitro anticancer screen (SRB); format: cell-based, human; details: Colon, 48 h exposure
# Method: as §1
# SK-MEL-28 = test: NCI in vitro anticancer screen (SRB); format: cell-based, human; details: Melanoma, 48 h exposure
# Method: as §1
# PC-3 = test: NCI in vitro anticancer screen (SRB); format: cell-based, human; details: Prostate, 48 h exposure
# Method: as §1
# HT29 = test: NCI in vitro anticancer screen (SRB); format: cell-based, human; details: Colon, 48 h exposure
# Method: as §1
# CAKI-1 = test: NCI in vitro anticancer screen (SRB); format: cell-based, human; details: Renal, 48 h exposure
# Method: as §1
# OVCAR-8 = test: NCI in vitro anticancer screen (SRB); format: cell-based, human; details: Ovarian, 48 h exposure
# Method: as §1
# SF-539 = test: NCI in vitro anticancer screen (SRB); format: cell-based, human; details: CNS, 48 h exposure
# Method: as §1
# RPMI-8226 = test: NCI in vitro anticancer screen (SRB); format: cell-based, human; details: Leukemia, 48 h exposure
# Method: as §1
# SN12C = test: NCI in vitro anticancer screen (SRB); format: cell-based, human; details: Renal, 48 h exposure
# Method: as §1
# COLO 205 = test: NCI in vitro anticancer screen (SRB); format: cell-based, human; details: Colon, 48 h exposure
# Method: as §1
# BT-549 = test: NCI in vitro anticancer screen (SRB); format: cell-based, human; details: Breast, 48 h exposure
# Method: as §1
# SNB-19 = test: NCI in vitro anticancer screen (SRB); format: cell-based, human; details: CNS, 48 h exposure
# Method: as §1
# SR = test: NCI in vitro anticancer screen (SRB); format: cell-based, human; details: Leukemia, 48 h exposure
# Method: as §1
# SNB-75 = test: NCI in vitro anticancer screen (SRB); format: cell-based, human; details: CNS, 48 h exposure
# Method: as §1
# NCI-H322M = test: NCI in vitro anticancer screen (SRB); format: cell-based, human; details: Non-small cell lung, 48 h exposure
# Method: as §1
# OVCAR-5 = test: NCI in vitro anticancer screen (SRB); format: cell-based, human; details: Ovarian, 48 h exposure
# Method: as §1
# SK-OV-3 = test: NCI in vitro anticancer screen (SRB); format: cell-based, human; details: Ovarian, 48 h exposure
# Method: as §1
# MCF7 = test: NCI in vitro anticancer screen (SRB); format: cell-based, human; details: Breast, 48 h exposure
# Method: as §1
# SF-268 = test: NCI in vitro anticancer screen (SRB); format: cell-based, human; details: CNS, 48 h exposure
# Method: as §1
# MOLT-4 = test: NCI in vitro anticancer screen (SRB); format: cell-based, human; details: Leukemia, 48 h exposure
# Method: as §1
# ACHN = test: NCI in vitro anticancer screen (SRB); format: cell-based, human; details: Renal, 48 h exposure
# Method: as §1
# HOP-62 = test: NCI in vitro anticancer screen (SRB); format: cell-based, human; details: Non-small cell lung, 48 h exposure
# Method: as §1
# HL-60(TB) = test: NCI in vitro anticancer screen (SRB); format: cell-based, human; details: Leukemia, 48 h exposure
# Method: as §1
# KM12 = test: NCI in vitro anticancer screen (SRB); format: cell-based, human; details: Colon, 48 h exposure
# Method: as §1
# UACC-62 = test: NCI in vitro anticancer screen (SRB); format: cell-based, human; details: Melanoma, 48 h exposure
# Method: as §1
# A498 = test: NCI in vitro anticancer screen (SRB); format: cell-based, human; details: Renal, 48 h exposure
# Method: as §1
# HS 578T = test: NCI in vitro anticancer screen (SRB); format: cell-based, human; details: Breast, 48 h exposure
# Method: as §1
# HOP-92 = test: NCI in vitro anticancer screen (SRB); format: cell-based, human; details: Non-small cell lung, 48 h exposure
# Method: as §1
# MDA-MB-435 = test: NCI in vitro anticancer screen (SRB); format: cell-based, human; details: Breast, 48 h exposure
# Method: as §1
# MALME-3M = test: NCI in vitro anticancer screen (SRB); format: cell-based, human; details: Melanoma, 48 h exposure
# Method: as §1
# 786-0 = test: NCI in vitro anticancer screen (SRB); format: cell-based, human; details: Renal, 48 h exposure
# Method: as §1
# U251 = test: NCI in vitro anticancer screen (SRB); format: cell-based, human; details: CNS, 48 h exposure
# Method: as §1
# T-47D = test: NCI in vitro anticancer screen (SRB); format: cell-based, human; details: Breast, 48 h exposure
# Method: as §1
# OVCAR-3 = test: NCI in vitro anticancer screen (SRB); format: cell-based, human; details: Ovarian, 48 h exposure
# Method: as §1
# NCI-H460 = test: NCI in vitro anticancer screen (SRB); format: cell-based, human; details: Non-small cell lung, 48 h exposure
# Method: as §1
# NCI-H522 = test: NCI in vitro anticancer screen (SRB); format: cell-based, human; details: Non-small cell lung, 48 h exposure
# Method: as §1
# [2] = tested on: sixty human tumor cells derived from nine cancer types; test: NCI in vitro anticancer screen (SRB), whole panel; format: cell-based; details: human tumor cell lines; 48 h drug exposure, SRB
# Method: as §1
# calf thymus (CT) DNA [3] = details: [PBD]:[DNA] molar ratio 1:5; literature value; listed as SJC-136; cited from earlier work
smiles,measurement,setting,value
"COc1cc2c(cc1OCCCN1CCN(CCCOc3cc4c(cc3OC)C(=O)N3CC(F)(F)C[C@H]3C=N4)CC1)N=C[C@@H]1CC(F)(F)CN1C2=O [IXd, 1,1′-{[(bispropane-1,N-diyl)piperazine]dioxy}bis[(11aS)-2-2-difluoro-7-methoxy-1,2,3,11a-tetrahydro-5H-pyrrolo[2,1-c][1,4]benzodiazepine-5-one]]",ΔTm after incubation at 37° C. for 0 h,calf thymus (CT) DNA [1],11.0 °C
same,GI50,DU-145,3.63 µM
same,GI50,CCRF-CEM,900 nM
same,GI50,RXF 393,2140 nM
same,GI50,HCT-116,3.59 µM
same,GI50,TK-10,4.38 µM
same,GI50,K-562,1700 nM
same,GI50,M14,3.25 µM
same,GI50,SW-620,2610 nM
same,GI50,LOX IMVI,1890 nM
same,GI50,IGROV1,1920 nM
same,GI50,A549/ATCC,7.3 µM
same,GI50,SK-MEL-5,1860 nM
same,GI50,HCC-2998,5.4 µM
same,GI50,SK-MEL-28,4.28 µM
same,GI50,PC-3,3.06 µM
same,GI50,HT29,3.61 µM
same,GI50,CAKI-1,3.31 µM
same,GI50,OVCAR-8,6.3 µM
same,GI50,SF-539,3000 nM
same,GI50,RPMI-8226,2200 nM
same,GI50,SN12C,4.05 µM
same,GI50,COLO 205,3.09 µM
same,GI50,BT-549,3.25 µM
same,GI50,SNB-19,4.08 µM
same,GI50,SR,800 nM
same,GI50,SNB-75,5.52 µM
same,GI50,NCI-H322M,1960 nM
same,GI50,OVCAR-5,3.83 µM
same,GI50,SK-OV-3,8.64 µM
same,GI50,MCF7,2090 nM
same,GI50,SF-268,3.57 µM
same,GI50,MOLT-4,2020 nM
same,GI50,ACHN,5.64 µM
same,GI50,HOP-62,3.17 µM
same,GI50,HL-60(TB),1180 nM
same,GI50,KM12,4.1 µM
same,GI50,UACC-62,3.05 µM
same,GI50,A498,2430 nM
same,GI50,HS 578T,2940 nM
same,GI50,HOP-92,6.14 µM
same,GI50,MDA-MB-435,1950 nM
same,GI50,MALME-3M,2800 nM
same,GI50,786-0,3.17 µM
same,GI50,U251,3.36 µM
same,GI50,T-47D,1380 nM
same,GI50,OVCAR-3,3.55 µM
same,GI50,NCI-H460,2600 nM
same,GI50,NCI-H522,1140 nM
same,Log10 GI50 mean graph midpoint (MG_MID),[2],−5.41
same,Log10 LC50 mean graph midpoint (MG_MID),[2],−4.2
same,Log10 TGI mean graph midpoint (MG_MID),[2],−4.79
"COc1cc2c(cc1OCCCCN1CCN(CCCCOc3cc4c(cc3OC)C(=O)N3CC(F)(F)C[C@H]3C=N4)CC1)N=C[C@@H]1CC(F)(F)CN1C2=O [IXe, 1,1′-{[(bisbutane-1,N-diyl)piperazine]dioxy}bis[(11aS)-2-2-difluoro-7-methoxy-1,2,3,11a-tetrahydro-5H-pyrrolo[2,1-c][1,4]benzodiazepine-5-one]]",ΔTm after incubation at 37° C. for 0 h,calf thymus (CT) DNA [1],14.0 °C
"COc1cc2c(cc1OCCCCCN1CCN(CCCCCOc3cc4c(cc3OC)C(=O)N3CC(F)(F)C[C@H]3C=N4)CC1)N=C[C@@H]1CC(F)(F)CN1C2=O [IXf, 1,1′-{[(bispentane-1,N-diyl)piperazine]dioxy}bis[(11aS)-2-2-difluoro-7-methoxy-1,2,3,11a-tetrahydro-5H-pyrrolo[2,1-c][1,4]benzodiazepine-5-one]]",ΔTm after incubation at 37° C. for 0 h,calf thymus (CT) DNA [1],13.0 °C
C=C1C[C@H]2C=Nc3cc(OCCCOc4cc5c(cc4OC)C(=O)N4CC(=C)C[C@H]4C=N5)c(OC)cc3C(=O)N2C1 [SJG-136],ΔTm after incubation at 37° C. for 0 h,calf thymus (CT) DNA [3],25 °C
